Measurements reported in the supplement of paper PMC11368000.

Key:
Details in all cases: exposure time: 90 min
1565 = donor line of iPSC-derived cardiomyocytes; test: POD (EC95) for loss of peak frequency (asystole) vs vehicle; higher = less potent (higher point of departure)
Description: (§1)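 Human iPSC-derived cardiomyocytes from 16 donors were exposed for 90 min at 37 °C to each PFAS at 0.1, 1, 10 and 100 µM in 0.5% DMSO, 384-well plates. Kinetic Ca2+ flux (FLIPR) and Hoechst nuclei counts were normalised to vehicle wells and fitted with a hierarchical Bayesian Hill model to give donor-specific PODs: EC05 for beat-rate increase or decrease and for decay-to-rise ratio increase (QT proxy), EC95 for peak-frequency loss (asystole), EC10 for total cell number loss. 0.03 µM is the lower bound.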

1531 [1] = donor line of iPSC-derived cardiomyocytes; test: as above
Description: as §1

1535 = donor line of iPSC-derived cardiomyocytes; test: as above
Description: as §1

1516 = donor line of iPSC-derived cardiomyocytes; test: as above
Description: as §1

20032 [2] = donor line of iPSC-derived cardiomyocytes; test: as above
Description: as §1

11235 = donor line of iPSC-derived cardiomyocytes; test: as above
Description: as §1

30171 = donor line of iPSC-derived cardiomyocytes; test: as above
Description: as §1

20084 = donor line of iPSC-derived cardiomyocytes; test: as above
Description: as §1

1518 = donor line of iPSC-derived cardiomyocytes; test: as above
Description: as §1

1392 = donor line of iPSC-derived cardiomyocytes; test: as above
Description: as §1

30145 [3] = donor line of iPSC-derived cardiomyocytes; test: as above
Description: as §1

1434 = donor line of iPSC-derived cardiomyocytes; test: as above
Description: as §1

1309 [4] = donor line of iPSC-derived cardiomyocytes; test: as above
Description: as §1

1368 = donor line of iPSC-derived cardiomyocytes; test: as above
Description: as §1

1083 = donor line of iPSC-derived cardiomyocytes; test: as above
Description: as §1

1118 = donor line of iPSC-derived cardiomyocytes; test: as above
Description: as §1

1531 [5] = test: POD (EC10) for decrease in total cell number (cytotoxicity) vs vehicle; higher = less potent (higher point of departure)
Description: as §1

20032 [6] = test: as above
Description: as §1

30145 [7] = test: as above
Description: as §1

1309 [8] = test: as above
Description: as §1

| SMILES | POD vs vehicle 1565 [µM] | POD vs vehicle 1531 [1] [µM] | POD vs vehicle 1535 [µM] | POD vs vehicle 1516 [µM] | POD vs vehicle 20032 [2] [µM] | POD vs vehicle 11235 [µM] | POD vs vehicle 30171 [µM] | POD vs vehicle 20084 [µM] | POD vs vehicle 1518 [µM] | POD vs vehicle 1392 [µM] | POD vs vehicle 30145 [3] [µM] | POD vs vehicle 1434 [µM] | POD vs vehicle 1309 [4] [µM] | POD vs vehicle 1368 [µM] | POD vs vehicle 1083 [µM] | POD vs vehicle 1118 [µM] | POD vs vehicle 1531 [5] [µM] | POD vs vehicle 20032 [6] [µM] | POD vs vehicle 30145 [7] [µM] | POD vs vehicle 1309 [8] [µM] |
| --- | --- | --- | --- | --- | --- | --- | --- | --- | --- | --- | --- | --- | --- | --- | --- | --- | --- | --- | --- | --- |
| O=C(O)C=C(C(F)(F)F)C(F)(F)F [3,3-Bis(trifluoromethyl)-2-propenoic_acid] | > 100 | > 100 | > 100 | > 100 | > 100 | > 100 | > 100 | > 100 | > 100 | > 100 | > 100 | > 100 | > 100 | > 100 | > 100 | > 100 | > 100 | > 100 | > 100 | > 100 |
| O=C(O)C=CC(F)(C(F)(F)F)C(F)(F)F [3-(Perfluoroisopropyl)-2-propenoic_acid] | > 100 | > 100 | > 100 | > 100 | > 100 | > 100 | > 100 | > 100 | > 100 | > 100 | > 100 | > 100 | > 100 | > 100 | > 100 | > 100 | > 100 | > 100 | > 100 | > 100 |
| O=C(O)CCC(F)(F)C(F)(F)C(F)(F)C(F)(F)C(F)(F)C(F)(F)C(F)(F)F [3-Perfluoroheptylpropanoic_acid] | > 100 | > 100 | > 100 | > 100 | > 100 | 84.8 | > 100 | > 100 | > 100 | > 100 | > 100 | 90.9 | > 100 | > 100 | > 100 | 59.8 | > 100 | > 100 | > 100 | > 100 |
| O=C(O)CCC(F)(F)C(F)(F)C(F)(F)F [3:3 Fluorotelomer carboxylic acid] | > 100 | > 100 | > 100 | > 100 | > 100 | > 100 | > 100 | > 100 | > 100 | > 100 | > 100 | > 100 | > 100 | > 100 | > 100 | > 100 | > 100 | > 100 | > 100 | > 100 |
| O=C(CC(=O)C(F)(F)C(F)(F)F)C(F)(F)F [3H,3H-Perfluoro-2,4-hexanedione] | > 100 | > 100 | > 100 | > 100 | > 100 | 87.4 | 79.9 | > 100 | > 100 | > 100 | > 100 | 78.3 | > 100 | > 100 | > 100 | 80.5 | > 100 | > 100 | > 100 | > 100 |
| OCCC(F)(F)C(F)(F)C(F)(F)C(F)(F)F [4:2 Fluorotelomer alcohol] | > 100 | > 100 | > 100 | > 100 | > 100 | > 100 | > 100 | > 100 | > 100 | > 100 | > 100 | > 100 | > 100 | > 100 | > 100 | 89.1 | > 100 | > 100 | 49.9 | > 100 |
| O=S(=O)(O)CCC(F)(F)C(F)(F)C(F)(F)C(F)(F)F [4:2 Fluorotelomer sulfonic acid] | > 100 | > 100 | > 100 | > 100 | > 100 | > 100 | > 100 | > 100 | > 100 | > 100 | > 100 | > 100 | > 100 | > 100 | > 100 | > 100 | > 100 | > 100 | > 100 | > 100 |
| OCC(F)(F)C(F)(F)C(F)(F)C(F)(F)C(F)(F)C(F)(F)F [6:1 Fluorotelomer alcohol] | > 100 | > 100 | > 100 | > 100 | > 100 | 70.2 | 80.8 | > 100 | > 100 | > 100 | > 100 | 75.4 | > 100 | > 100 | 84.3 | 1.75 | > 100 | > 100 | > 100 | 98.6 |
| OCCC(F)(F)C(F)(F)C(F)(F)C(F)(F)C(F)(F)C(F)(F)F [6:2 Fluorotelomer alcohol] | > 100 | > 100 | > 100 | > 100 | > 100 | > 100 | > 100 | > 100 | > 100 | > 100 | > 100 | > 100 | > 100 | > 100 | > 100 | > 100 | > 100 | > 100 | > 100 | > 100 |
| O=S(=O)(O)CCC(F)(F)C(F)(F)C(F)(F)C(F)(F)C(F)(F)C(F)(F)F [6:2 Fluorotelomer sulfonic acid] | > 100 | > 100 | > 100 | > 100 | > 100 | > 100 | > 100 | > 100 | > 100 | > 100 | > 100 | > 100 | > 100 | > 100 | > 100 | > 100 | > 100 | > 100 | > 100 | > 100 |
| OCCC(F)(F)C(F)(F)C(F)(F)C(F)(F)C(F)(F)C(F)(F)C(F)(F)C(F)(F)F [8:2 Fluorotelomer alcohol] | > 100 | > 100 | > 100 | > 100 | > 100 | > 100 | > 100 | > 100 | > 100 | > 100 | > 100 | > 100 | > 100 | > 100 | > 100 | > 100 | > 100 | > 100 | > 100 | > 100 |
| O=S(=O)(O)CCC(F)(F)C(F)(F)C(F)(F)C(F)(F)C(F)(F)C(F)(F)C(F)(F)C(F)(F)F [8:2 Fluorotelomer sulfonic acid] | > 100 | 16.5 | > 100 | > 100 | > 100 | > 100 | > 100 | > 100 | > 100 | > 100 | 89.3 | > 100 | > 100 | > 100 | > 100 | > 100 | > 100 | > 100 | > 100 | > 100 |
| O=C(O)C(F)(F)C(F)(F)C(F)(F)C(F)(F)C(F)(F)C(F)(F)C(F)(F)C(F)(F)Cl [9-Chloro-perfluorononanoic_acid] | > 100 | > 100 | > 100 | 90.9 | > 100 | 14.7 | 44.1 | > 100 | > 100 | > 100 | > 100 | 87.4 | > 100 | > 100 | > 100 | 84.3 | > 100 | > 100 | > 100 | > 100 |
| O=P(O)(O)CCC(F)(F)C(F)(F)C(F)(F)C(F)(F)C(F)(F)C(F)(F)C(F)(F)C(F)(F)F [((Perfluorooctyl)ethyl)phosphonic_acid] | > 100 | > 100 | > 100 | > 100 | > 100 | > 100 | > 100 | > 100 | > 100 | > 100 | > 100 | > 100 | > 100 | > 100 | > 100 | > 100 | > 100 | > 100 | > 100 | > 100 |
| O=C([O-])C(F)(F)C(F)(F)C(F)(F)C(F)(F)C(F)(F)C(F)(F)C(F)(F)F.[NH4+] [Ammonium_perfluorooctanoate] | > 100 | > 100 | > 100 | > 100 | > 100 | 72.4 | > 100 | > 100 | > 100 | > 100 | > 100 | > 100 | > 100 | > 100 | > 100 | > 100 | > 100 | > 100 | > 100 | > 100 |
| OCC(F)(F)C(F)(F)C(F)(F)C(F)(F)C(F)(F)C(F)F [Dodecafluoroheptanol] | 50.6 | 42.6 | 46.3 | 48.2 | 47.7 | 48.1 | 51.8 | 48.6 | 38.1 | 45 | 47.9 | 45.8 | 50.3 | 35.7 | 38.1 | 7.54 | > 100 | 58.4 | > 100 | > 100 |
| OCC(F)(F)C(F)(F)C(F)(F)F [Heptafluorobutanol] | > 100 | > 100 | > 100 | > 100 | > 100 | > 100 | > 100 | > 100 | > 100 | > 100 | > 100 | > 100 | > 100 | > 100 | > 100 | > 100 | > 100 | > 100 | > 100 | > 100 |
| NC(=O)C(F)(F)C(F)(F)C(F)(F)F [Heptafluorobutyramide] | > 100 | > 100 | > 100 | > 100 | > 100 | > 100 | > 100 | > 100 | > 100 | > 100 | > 100 | > 100 | > 100 | > 100 | > 100 | > 100 | > 100 | > 100 | > 100 | > 100 |
| OCC(F)(F)C(F)(F)C(F)(F)CO [Hexafluoroamylene_glycol] | > 100 | > 100 | > 100 | > 100 | > 100 | > 100 | > 100 | > 100 | > 100 | > 100 | > 100 | > 100 | > 100 | > 100 | > 100 | > 100 | > 100 | > 100 | > 100 | > 100 |
